Like-named read-outs stand apart in the source and are kept apart here.
Key:
Test in all cases: TGFα-shedding assay-based GPCR screening with chimeric Gα subunit proteins
Assay type in all cases: cell-based
348 GPCRs [1] = target: T1, 348 GPCRs (Homo sapiens, UniProt Q9NS67); conditions: 10µM, Favipiravir 100μM
T1 construct: expressed in transfected cells; host or cells: HEK293A

348 GPCRs [2] = target: T2, 348 GPCRs (Homo sapiens, UniProt P32238); conditions: 10µM, Favipiravir 100μM
T2 sequence (P32238 1-428): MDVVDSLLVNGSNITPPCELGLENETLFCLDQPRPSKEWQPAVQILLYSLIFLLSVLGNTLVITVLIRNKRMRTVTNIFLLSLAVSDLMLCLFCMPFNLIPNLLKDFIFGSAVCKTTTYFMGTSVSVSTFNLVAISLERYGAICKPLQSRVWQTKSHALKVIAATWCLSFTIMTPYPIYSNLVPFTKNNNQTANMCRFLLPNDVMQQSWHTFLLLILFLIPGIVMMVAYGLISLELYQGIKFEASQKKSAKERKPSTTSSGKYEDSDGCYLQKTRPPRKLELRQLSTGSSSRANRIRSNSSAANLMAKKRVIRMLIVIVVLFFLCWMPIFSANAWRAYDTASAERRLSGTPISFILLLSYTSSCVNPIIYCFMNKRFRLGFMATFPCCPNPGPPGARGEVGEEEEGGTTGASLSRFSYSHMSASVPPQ

348 GPCRs [3] = target: T3, 348 GPCRs (Homo sapiens, UniProt O14842); conditions: 10µM, Favipiravir 100μM
T3 construct: expressed in transfected cells; host or cells: HEK293A

348 GPCRs [4] = target: T4, 348 GPCRs (Homo sapiens, UniProt P28222); conditions: 10µM, Favipiravir 100μM
T4 construct: expressed in transfected cells; host or cells: HEK293A

348 GPCRs [5] = target: T5, 348 GPCRs (Homo sapiens, UniProt P51582)
T5 construct: expressed in transfected cells; host or cells: HEK293A

348 GPCRs [6] = target: T6, 348 GPCRs (Homo sapiens, UniProt Q8TDT2); conditions: 10µM, Favipiravir 100μM
T6 construct: expressed in transfected cells; host or cells: HEK293A

348 GPCRs [7] = target: T7, 348 GPCRs (Homo sapiens, UniProt O95838); conditions: 10µM, Favipiravir 100μM
T7 construct: expressed in transfected cells; host or cells: HEK293A
T7 sequence (O95838 1-553): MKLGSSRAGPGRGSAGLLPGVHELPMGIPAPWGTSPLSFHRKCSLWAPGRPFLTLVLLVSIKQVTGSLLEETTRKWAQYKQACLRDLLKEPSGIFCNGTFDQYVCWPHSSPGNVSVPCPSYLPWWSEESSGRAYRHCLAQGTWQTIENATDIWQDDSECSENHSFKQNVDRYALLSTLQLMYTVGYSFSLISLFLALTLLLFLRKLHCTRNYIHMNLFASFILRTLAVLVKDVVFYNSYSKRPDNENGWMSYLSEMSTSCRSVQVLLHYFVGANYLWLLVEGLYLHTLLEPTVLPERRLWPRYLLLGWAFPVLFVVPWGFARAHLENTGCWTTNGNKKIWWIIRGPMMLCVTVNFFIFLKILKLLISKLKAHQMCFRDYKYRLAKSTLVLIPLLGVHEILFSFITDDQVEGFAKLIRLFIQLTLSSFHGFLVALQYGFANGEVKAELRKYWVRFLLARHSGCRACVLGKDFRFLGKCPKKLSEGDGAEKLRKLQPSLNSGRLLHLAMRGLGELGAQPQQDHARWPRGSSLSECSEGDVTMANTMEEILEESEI

348 GPCRs [8] = target: T8, 348 GPCRs (Homo sapiens, UniProt P18089)
T8 construct: expressed in transfected cells; host or cells: HEK293A
T8 sequence (P18089 1-450): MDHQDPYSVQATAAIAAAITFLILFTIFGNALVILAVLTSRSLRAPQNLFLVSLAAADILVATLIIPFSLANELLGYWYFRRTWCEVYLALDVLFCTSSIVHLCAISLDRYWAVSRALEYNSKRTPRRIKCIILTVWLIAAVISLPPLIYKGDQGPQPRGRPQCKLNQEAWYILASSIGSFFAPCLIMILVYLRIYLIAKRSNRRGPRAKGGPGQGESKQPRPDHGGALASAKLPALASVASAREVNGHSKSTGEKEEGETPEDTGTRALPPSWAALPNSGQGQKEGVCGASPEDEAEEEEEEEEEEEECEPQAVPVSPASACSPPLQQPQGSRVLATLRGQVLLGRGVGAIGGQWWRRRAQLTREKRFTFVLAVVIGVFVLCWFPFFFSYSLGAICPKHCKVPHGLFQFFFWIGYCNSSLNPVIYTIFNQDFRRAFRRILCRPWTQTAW

348 GPCRs [9] = target: T9, 348 GPCRs (Homo sapiens, UniProt P08173)
T9 construct: expressed in transfected cells; host or cells: HEK293A
T9 sequence (P08173 1-479): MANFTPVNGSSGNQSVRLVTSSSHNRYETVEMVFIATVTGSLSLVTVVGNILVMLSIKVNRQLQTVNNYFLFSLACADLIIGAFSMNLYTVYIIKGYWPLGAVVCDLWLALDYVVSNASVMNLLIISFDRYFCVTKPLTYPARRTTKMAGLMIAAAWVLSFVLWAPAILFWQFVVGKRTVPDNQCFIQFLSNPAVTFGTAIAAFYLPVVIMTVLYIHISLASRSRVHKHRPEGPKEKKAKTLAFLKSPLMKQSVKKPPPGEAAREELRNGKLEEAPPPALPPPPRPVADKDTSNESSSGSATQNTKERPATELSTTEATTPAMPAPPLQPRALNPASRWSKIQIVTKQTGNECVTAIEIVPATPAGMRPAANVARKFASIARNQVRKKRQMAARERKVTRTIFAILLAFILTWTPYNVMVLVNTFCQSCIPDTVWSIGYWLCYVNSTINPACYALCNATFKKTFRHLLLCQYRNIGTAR

348 GPCRs [10] = target: T10, 348 GPCRs (Homo sapiens, UniProt Q8TDU9); conditions: RXFP4 (relaxin/insulin-like family peptide receptor 4); 10µM, Favipiravir 100μM
T10 construct: expressed in transfected cells; host or cells: HEK293A

[11] = GPR27 (G Protein-Coupled Receptor 27), read-out: % GPCR activation compared to TPA
[12] = CCKAR (cholecystokinin A receptor), read-out: % GPCR activation compared to TPA
[13] = FFA1 (free fatty acid receptor 1), read-out: % GPCR activation compared to TPA
[14] = 5-HT1B (5-hydroxytryptamine receptor 1B), read-out: % GPCR activation compared to TPA
[15] = GPCR P2Y4 (pyrimidinergic receptor P2Y, G-protein coupled, 4), read-out: % GPCR activation compared to TPA
[16] = GPR152 (G Protein-Coupled Receptor 152), read-out: % GPCR activation compared to TPA
[17] = GLP2R (glucagon like peptide 2 receptor), read-out: % GPCR activation compared to TPA
[18] = GPCR α2B (adrenoceptor alpha 2B), read-out: % GPCR activation compared to TPA
[19] = GPCR M4 (Muscarinic acetylcholine receptor M4), read-out: % GPCR activation compared to TPA
[20] = read-out: % GPCR activation compared to TPA, GPR27 (G Protein-Coupled Receptor 27)
[21] = read-out: % GPCR activation compared to TPA, CCKAR (cholecystokinin A receptor)
[22] = read-out: % GPCR activation compared to TPA, FFA1 (free fatty acid receptor 1)
[23] = read-out: % GPCR activation compared to TPA, 5-HT1B (5-hydroxytryptamine receptor 1B)
[24] = read-out: % GPCR activation compared to TPA, GPCR P2Y4 (pyrimidinergic receptor P2Y, G-protein coupled, 4)
[25] = read-out: % GPCR activation compared to TPA, GPR152 (G Protein-Coupled Receptor 152)
[26] = read-out: % GPCR activation compared to TPA, GLP2R (glucagon like peptide 2 receptor)
[27] = read-out: % GPCR activation compared to TPA, GPCR α2B (adrenoceptor alpha 2B)
[28] = read-out: % GPCR activation compared to TPA, GPCR M4 (Muscarinic acetylcholine receptor M4)

T1 sequence (Q9NS67 whole entry): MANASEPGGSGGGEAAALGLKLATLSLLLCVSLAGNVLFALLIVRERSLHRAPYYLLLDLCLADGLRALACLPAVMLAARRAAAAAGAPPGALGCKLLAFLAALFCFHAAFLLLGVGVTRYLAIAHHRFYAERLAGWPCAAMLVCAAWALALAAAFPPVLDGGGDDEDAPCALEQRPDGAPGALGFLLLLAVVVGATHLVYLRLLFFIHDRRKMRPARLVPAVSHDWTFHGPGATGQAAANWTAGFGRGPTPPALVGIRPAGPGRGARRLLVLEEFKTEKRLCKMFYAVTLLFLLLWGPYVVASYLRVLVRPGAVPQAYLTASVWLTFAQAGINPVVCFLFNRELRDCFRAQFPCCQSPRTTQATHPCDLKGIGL
T6 sequence (Q8TDT2 whole entry): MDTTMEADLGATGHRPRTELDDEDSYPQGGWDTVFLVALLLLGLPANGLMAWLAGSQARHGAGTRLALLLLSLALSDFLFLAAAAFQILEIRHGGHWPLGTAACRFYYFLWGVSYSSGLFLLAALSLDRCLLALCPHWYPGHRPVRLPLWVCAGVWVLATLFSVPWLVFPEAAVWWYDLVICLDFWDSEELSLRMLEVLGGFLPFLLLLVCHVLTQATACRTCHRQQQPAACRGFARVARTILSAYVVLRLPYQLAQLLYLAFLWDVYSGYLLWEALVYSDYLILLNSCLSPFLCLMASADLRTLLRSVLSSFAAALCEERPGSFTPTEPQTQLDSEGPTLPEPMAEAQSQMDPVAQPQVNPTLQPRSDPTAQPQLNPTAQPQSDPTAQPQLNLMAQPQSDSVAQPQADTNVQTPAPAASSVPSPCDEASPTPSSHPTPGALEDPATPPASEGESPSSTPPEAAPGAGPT
T10 sequence (Q8TDU9 whole entry): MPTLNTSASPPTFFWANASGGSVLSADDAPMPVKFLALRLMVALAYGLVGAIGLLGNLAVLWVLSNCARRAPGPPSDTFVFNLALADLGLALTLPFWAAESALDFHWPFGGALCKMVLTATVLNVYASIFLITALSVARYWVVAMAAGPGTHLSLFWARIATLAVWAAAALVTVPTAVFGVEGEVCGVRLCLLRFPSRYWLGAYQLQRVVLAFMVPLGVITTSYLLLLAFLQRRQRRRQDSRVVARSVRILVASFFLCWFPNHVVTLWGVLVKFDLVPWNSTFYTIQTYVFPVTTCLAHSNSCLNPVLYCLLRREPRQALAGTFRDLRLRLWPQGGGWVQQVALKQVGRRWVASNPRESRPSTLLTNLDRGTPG
T3 sequence (O14842 whole entry): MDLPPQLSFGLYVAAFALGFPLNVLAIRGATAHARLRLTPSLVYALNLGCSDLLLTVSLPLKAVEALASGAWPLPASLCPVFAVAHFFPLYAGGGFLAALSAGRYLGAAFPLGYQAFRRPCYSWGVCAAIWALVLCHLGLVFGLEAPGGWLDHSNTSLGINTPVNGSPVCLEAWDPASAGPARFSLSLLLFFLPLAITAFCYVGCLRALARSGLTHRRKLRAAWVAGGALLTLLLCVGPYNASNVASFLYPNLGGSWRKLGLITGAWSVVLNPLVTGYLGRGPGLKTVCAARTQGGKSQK
T5 sequence (P51582 whole entry): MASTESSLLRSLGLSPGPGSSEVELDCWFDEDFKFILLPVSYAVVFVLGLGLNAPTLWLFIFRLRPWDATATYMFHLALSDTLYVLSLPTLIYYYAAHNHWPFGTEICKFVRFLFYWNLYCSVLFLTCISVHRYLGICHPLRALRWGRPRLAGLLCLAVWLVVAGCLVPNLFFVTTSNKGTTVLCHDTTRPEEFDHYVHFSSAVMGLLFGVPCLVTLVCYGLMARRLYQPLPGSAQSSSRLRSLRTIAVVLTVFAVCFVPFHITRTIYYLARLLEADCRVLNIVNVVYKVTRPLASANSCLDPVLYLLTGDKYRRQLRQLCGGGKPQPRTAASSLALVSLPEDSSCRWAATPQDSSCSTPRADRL
T4 sequence (P28222 whole entry): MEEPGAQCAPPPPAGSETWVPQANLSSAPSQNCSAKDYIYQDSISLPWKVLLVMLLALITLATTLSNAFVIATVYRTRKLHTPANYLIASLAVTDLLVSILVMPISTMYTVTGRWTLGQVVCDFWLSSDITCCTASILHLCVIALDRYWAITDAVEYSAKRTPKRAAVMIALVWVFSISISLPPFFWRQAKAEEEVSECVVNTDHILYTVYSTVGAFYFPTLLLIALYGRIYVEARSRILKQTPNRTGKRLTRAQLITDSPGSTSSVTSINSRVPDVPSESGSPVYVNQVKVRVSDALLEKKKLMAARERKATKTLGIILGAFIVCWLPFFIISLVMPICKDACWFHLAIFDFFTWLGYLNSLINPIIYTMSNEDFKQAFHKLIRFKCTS

| Compound | activation at 100 µM (348 GPCRs [1]; [11]) [%] | activation at 100 µM (348 GPCRs [2]; [12]) [%] | activation at 10 µM (348 GPCRs [3]; [13]) [%] | activation at 100 µM (348 GPCRs [4]; [14]) [%] | activation at 10 µM (348 GPCRs [5]; [15]) [%] | activation at 10 µM (348 GPCRs [6]; [16]) [%] | activation at 10 µM (348 GPCRs [7]; [17]) [%] | activation at 10 µM (348 GPCRs [8]; [18]) [%] | activation at 10 µM (348 GPCRs [9]; [19]) [%] | % GPCR activation compared to TPA (348 GPCRs [10]) [%] | activation at 100 µM (348 GPCRs [1]; [20]) [%] | activation at 100 µM (348 GPCRs [2]; [21]) [%] | activation at 10 µM (348 GPCRs [3]; [22]) [%] | activation at 100 µM (348 GPCRs [4]; [23]) [%] | activation at 10 µM (348 GPCRs [5]; [24]) [%] | activation at 10 µM (348 GPCRs [6]; [25]) [%] | activation at 10 µM (348 GPCRs [7]; [26]) [%] | activation at 10 µM (348 GPCRs [8]; [27]) [%] | activation at 10 µM (348 GPCRs [9]; [28]) [%] | further results |
| --- | --- | --- | --- | --- | --- | --- | --- | --- | --- | --- | --- | --- | --- | --- | --- | --- | --- | --- | --- | --- |
| CCC(CC)COC(=O)[C@H](C)N[P@](=O)(OC[C@H]1O[C@@](C#N)(c2ccc3c(N)ncnn23)[C@H](O)[C@@H]1O)Oc1ccccc1 [remdesivir] | – | – | – | – | – | – | – | – | – | 0.9967 | 0.0845 | 1.15 | -6.96 | -0.255 | -0.00402 | -0.751 | 1.76 | 5.93 | -2.98 | – |
| CC(C)OC(=O)[C@H](C)N[P@](=O)(OC[C@H]1O[C@@H](n2ccc(=O)[nH]c2=O)[C@](C)(F)[C@@H]1O)Oc1ccccc1 [sofosbuvir] | – | – | – | – | – | – | – | – | – | -1.565 | 1.94 | -1.34 | -1.47 | -1 | -14.4 | 1.86 | -0.662 | 0.619 | -1.57 | – |

Further lines, with some results ahead:

| activation at 100 µM (348 GPCRs [1]; [11]) [%] | activation at 100 µM (348 GPCRs [2]; [12]) [%] | activation at 10 µM (348 GPCRs [3]; [13]) [%] | activation at 100 µM (348 GPCRs [4]; [14]) [%] | activation at 10 µM (348 GPCRs [5]; [15]) [%] | activation at 10 µM (348 GPCRs [6]; [16]) [%] | activation at 10 µM (348 GPCRs [7]; [17]) [%] | activation at 10 µM (348 GPCRs [8]; [18]) [%] | activation at 10 µM (348 GPCRs [9]; [19]) [%] | % GPCR activation compared to TPA (348 GPCRs [10]) [%] | Compound | activation at 100 µM (348 GPCRs [1]; [20]) [%] | activation at 100 µM (348 GPCRs [2]; [21]) [%] | activation at 10 µM (348 GPCRs [3]; [22]) [%] | activation at 100 µM (348 GPCRs [4]; [23]) [%] | activation at 10 µM (348 GPCRs [5]; [24]) [%] | activation at 10 µM (348 GPCRs [6]; [25]) [%] | activation at 10 µM (348 GPCRs [7]; [26]) [%] | activation at 10 µM (348 GPCRs [8]; [27]) [%] | activation at 10 µM (348 GPCRs [9]; [28]) [%] | further results |
| --- | --- | --- | --- | --- | --- | --- | --- | --- | --- | --- | --- | --- | --- | --- | --- | --- | --- | --- | --- | --- |
| 1.65 | -2.84 | -14.2 | -3.77 | -5.06 | -0.232 | 1.04 | -2.28 | -4.09 | -0.3375 | N#C[C@@]1(c2ccc3c(N)ncnn23)O[C@H](CO)[C@@H](O)[C@H]1O [GS441524] | – | – | – | – | – | – | – | – | – | – |
| -0.296 | -0.523 | -4.93 | -3.2 | – | -0.401 | 2.97 | – | – | 1.69 | NC(=O)c1nc(F)cnc1O [favipiravir, 6-fluoro-3-hydroxy-2-pyrazinecarboxamide] | – | – | – | – | – | – | – | – | – | activation at 100 µM (348 GPCRs [5]; GPCR P2Y4 (pyrimidinergic receptor P2Y, G-protein coupled, 4), 100μM, read-out: % GPCR activation compared to TPA): -6.06%; activation at 100 µM (348 GPCRs [8]; GPCR α2B (adrenoceptor alpha 2B), 100μM, read-out: % GPCR activation compared to TPA): -4.03%; activation at 100 µM (348 GPCRs [9]; GPCR M4 (Muscarinic acetylcholine receptor M4), 100μM, read-out: % GPCR activation compared to TPA): -6.29% |
| -0.612 | 2.71 | -2.86 | -0.835 | -12.8 | -1.29 | 0.598 | -2.53 | -1.11 | -0.4598 | CC(C)C(=O)OC[C@H]1O[C@@H](n2ccc(NO)nc2=O)[C@H](O)[C@@H]1O [molnupiravir] | – | – | – | – | – | – | – | – | – | – |
